ChEMBL document CHEMBL2413017, “Identification of novel HDAC inhibitors through cell based screening and their evaluation as potential anticancer agents” (Bioorg Med Chem Lett, 2013)
Calls of active or inactive are those of the source. The calls are words filed in the database; no cut-off is given here.

Experiments:
SK-OV-3 = assay: Cytotoxicity against human SKOV3 cells; format: functional, cell-based
MIA PaCa-2 [1] = assay: Antitumor activity against human MIAPaCa2 cells xenografted in Ncr mouse assessed as tumor growth inhibition at 80 mg/kg, ip administered daily for 22 days measured on day 25 relative to vehicle-treated control; format: functional, organism-based; design: dose 80 mg/kg
[2] = Cytotoxicity against human MiaPaCa cells; format: functional, cell-based; details: MIA PaCa-2
MDA-MB-231 = assay: Cytotoxicity against human MDA-MB-231 cells; format: functional, cell-based
[3] = Cytotoxicity against human H23 cells; format: functional, cell-based; details: NCI-H23
[4] = Cytotoxicity against human SNU880 cells; format: functional, cell-based
Mus musculus = assay: Toxicity in human MiaPaCa2 cells xenografted Ncr mouse at 50 to 100 mg/kg, po administered daily for 22 days; format: organism-based; design: dose 50-100 mg/kg, route oral; details: in vivo, 528 h
MIA PaCa-2 [5] = assay: Antitumor activity against human MIAPaCa2 cells xenografted in Ncr mouse assessed as tumor growth inhibition at 100 mg/kg, po administered daily for 22 days measured on day 22 relative to vehicle-treated control; format: functional; details: MIA PaCa-2, 528 h, read-out: TGI
[6] = Cytotoxicity against human Hep3B cells; format: functional, cell-based, Hep 3B2
[7] = Cytotoxicity against human MIHA cells; format: functional, cell-based
NCI-H69 [8] = assay: Cytotoxicity against human H69 cells; format: functional, cell-based
NCI-H69 [9] = assay: Cytotoxicity against […] expressing human H69 cells; format: functional, cell-based
[10] = Cytotoxicity against human MV522 cells; format: functional, cell-based
NCI-H295R = assay: Cytotoxicity against human NCI-H295R cells; format: functional, cell-based
[11] = Cytotoxicity against human VCaP cells; format: functional, cell-based
[12] = Cytotoxicity against human A2780C/P cells; format: functional, cell-based
A2780 = assay: Cytotoxicity against human A2780 cells; format: functional, cell-based
Histone deacetylase 11 = molecular target: T1, Histone deacetylase 11 (Homo sapiens, UniProt Q96DB2); assay: Inhibition of HDAC11 (unknown origin)
T1 sequence (Q96DB2 whole entry): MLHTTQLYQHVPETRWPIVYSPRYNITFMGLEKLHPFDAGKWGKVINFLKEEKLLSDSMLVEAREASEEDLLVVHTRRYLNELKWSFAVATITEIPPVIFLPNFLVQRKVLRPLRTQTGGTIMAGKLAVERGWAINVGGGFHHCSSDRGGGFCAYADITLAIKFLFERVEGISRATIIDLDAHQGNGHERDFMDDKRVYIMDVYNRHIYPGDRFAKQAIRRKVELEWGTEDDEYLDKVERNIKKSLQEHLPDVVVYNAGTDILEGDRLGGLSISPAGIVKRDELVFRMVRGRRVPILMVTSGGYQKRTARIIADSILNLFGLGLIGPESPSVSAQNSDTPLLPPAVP

[13] = molecular target: T2, Polyamine deacetylase HDAC10 (Homo sapiens, UniProt Q969S8); assay: Inhibition of HDAC10 (unknown origin)
T2 sequence (Q969S8 whole entry): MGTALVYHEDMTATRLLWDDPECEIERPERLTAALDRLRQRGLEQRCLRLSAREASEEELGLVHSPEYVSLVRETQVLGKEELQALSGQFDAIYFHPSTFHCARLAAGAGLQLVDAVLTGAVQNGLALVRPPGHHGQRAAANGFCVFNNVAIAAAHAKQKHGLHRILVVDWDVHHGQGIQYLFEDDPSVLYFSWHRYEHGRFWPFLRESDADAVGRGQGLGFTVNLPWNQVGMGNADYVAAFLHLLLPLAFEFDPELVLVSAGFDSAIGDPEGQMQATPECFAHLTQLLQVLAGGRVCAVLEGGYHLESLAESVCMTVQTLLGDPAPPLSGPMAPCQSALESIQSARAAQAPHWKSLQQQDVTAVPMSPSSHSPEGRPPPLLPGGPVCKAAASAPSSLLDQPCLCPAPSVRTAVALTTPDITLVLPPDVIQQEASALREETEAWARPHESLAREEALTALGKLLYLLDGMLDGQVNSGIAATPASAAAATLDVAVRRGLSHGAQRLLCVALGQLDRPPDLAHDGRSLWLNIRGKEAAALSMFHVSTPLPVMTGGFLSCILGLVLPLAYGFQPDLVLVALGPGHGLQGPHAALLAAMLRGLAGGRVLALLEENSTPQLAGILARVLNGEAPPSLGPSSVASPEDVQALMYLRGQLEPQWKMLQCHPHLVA

Histone deacetylase 8 = molecular target: T3, Histone deacetylase 8 (Homo sapiens, UniProt Q9BY41); assay: Inhibition of HDAC8 (unknown origin)
T3 sequence (Q9BY41 whole entry): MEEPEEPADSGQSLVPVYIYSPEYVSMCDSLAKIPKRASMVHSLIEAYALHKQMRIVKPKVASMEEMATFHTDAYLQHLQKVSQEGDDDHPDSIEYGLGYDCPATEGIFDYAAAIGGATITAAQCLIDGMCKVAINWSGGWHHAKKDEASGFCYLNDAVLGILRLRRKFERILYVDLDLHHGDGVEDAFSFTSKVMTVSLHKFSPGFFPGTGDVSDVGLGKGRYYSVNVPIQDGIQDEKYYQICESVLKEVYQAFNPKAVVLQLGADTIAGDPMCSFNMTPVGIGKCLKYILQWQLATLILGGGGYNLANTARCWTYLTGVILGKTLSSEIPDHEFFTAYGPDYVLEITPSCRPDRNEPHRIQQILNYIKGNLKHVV

Histone deacetylase 9 = Histone deacetylase 9 (Homo sapiens, UniProt Q9UKV0); assay: Inhibition of HDAC9 (unknown origin)
Histone deacetylase 5 = Histone deacetylase 5 (Homo sapiens, UniProt Q9UQL6); assay: Inhibition of HDAC5 (unknown origin)
[14] = molecular target: T4, Protein deacetylase HDAC6 (Homo sapiens, UniProt Q9UBN7); assay: Inhibition of HDAC6 (unknown origin)
T4 sequence (Q9UBN7 whole entry): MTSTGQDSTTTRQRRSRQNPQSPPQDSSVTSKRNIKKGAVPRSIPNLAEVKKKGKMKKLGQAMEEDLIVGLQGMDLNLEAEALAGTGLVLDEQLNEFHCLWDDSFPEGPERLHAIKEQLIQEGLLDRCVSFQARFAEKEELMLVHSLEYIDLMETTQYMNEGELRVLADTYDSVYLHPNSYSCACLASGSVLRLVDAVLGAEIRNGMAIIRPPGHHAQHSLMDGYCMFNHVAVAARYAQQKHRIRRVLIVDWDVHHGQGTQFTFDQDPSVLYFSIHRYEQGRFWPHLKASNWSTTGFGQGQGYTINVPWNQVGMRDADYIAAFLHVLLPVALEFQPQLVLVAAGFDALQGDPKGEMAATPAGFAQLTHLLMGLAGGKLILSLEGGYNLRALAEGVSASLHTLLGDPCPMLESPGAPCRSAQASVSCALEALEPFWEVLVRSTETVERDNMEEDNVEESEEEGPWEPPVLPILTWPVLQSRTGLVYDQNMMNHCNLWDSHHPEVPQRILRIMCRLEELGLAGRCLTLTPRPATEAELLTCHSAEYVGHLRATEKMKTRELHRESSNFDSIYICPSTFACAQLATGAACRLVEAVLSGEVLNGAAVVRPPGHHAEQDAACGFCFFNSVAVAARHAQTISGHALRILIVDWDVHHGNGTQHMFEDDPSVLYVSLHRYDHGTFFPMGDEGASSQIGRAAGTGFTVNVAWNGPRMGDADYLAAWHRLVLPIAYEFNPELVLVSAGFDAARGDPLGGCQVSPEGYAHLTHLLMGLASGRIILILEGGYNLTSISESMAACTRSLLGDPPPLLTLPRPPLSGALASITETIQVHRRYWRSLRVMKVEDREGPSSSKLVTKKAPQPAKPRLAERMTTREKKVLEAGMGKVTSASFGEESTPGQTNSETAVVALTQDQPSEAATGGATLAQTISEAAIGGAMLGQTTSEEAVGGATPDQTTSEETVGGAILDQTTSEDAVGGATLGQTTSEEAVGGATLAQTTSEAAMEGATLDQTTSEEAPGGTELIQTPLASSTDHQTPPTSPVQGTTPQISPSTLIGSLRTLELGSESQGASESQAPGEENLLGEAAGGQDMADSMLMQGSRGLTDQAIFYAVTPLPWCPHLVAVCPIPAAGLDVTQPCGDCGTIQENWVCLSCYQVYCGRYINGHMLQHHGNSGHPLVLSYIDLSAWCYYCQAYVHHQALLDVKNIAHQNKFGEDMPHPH

Histone deacetylase 4 = Histone deacetylase 4 (Homo sapiens, UniProt P56524); assay: Inhibition of HDAC4 (unknown origin)
Histone deacetylase 2 = Histone deacetylase 2 (Homo sapiens, UniProt Q92769); assay: Inhibition of HDAC2 (unknown origin)
Histone deacetylase 1 = Histone deacetylase 1 (Homo sapiens, UniProt Q13547); assay: Inhibition of HDAC1 (unknown origin)
Histone deacetylase 3 = Histone deacetylase 3 (Homo sapiens, UniProt O15379); assay: Inhibition of HDAC3 (unknown origin)
Chain of Histone deacetylase 3 (O15379 whole entry): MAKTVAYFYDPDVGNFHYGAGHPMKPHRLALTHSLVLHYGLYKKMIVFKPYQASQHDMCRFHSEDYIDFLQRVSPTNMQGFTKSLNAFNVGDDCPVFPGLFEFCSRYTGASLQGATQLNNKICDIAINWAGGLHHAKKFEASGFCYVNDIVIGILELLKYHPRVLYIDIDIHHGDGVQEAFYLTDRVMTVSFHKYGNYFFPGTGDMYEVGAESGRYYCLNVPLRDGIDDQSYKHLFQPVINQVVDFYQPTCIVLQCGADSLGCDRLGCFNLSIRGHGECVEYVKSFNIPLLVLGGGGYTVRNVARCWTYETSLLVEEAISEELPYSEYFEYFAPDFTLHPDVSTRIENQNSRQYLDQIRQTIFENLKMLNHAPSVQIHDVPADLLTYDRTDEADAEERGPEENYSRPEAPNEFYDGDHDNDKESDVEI

Chain of Histone deacetylase 5 (Q9UQL6 whole entry): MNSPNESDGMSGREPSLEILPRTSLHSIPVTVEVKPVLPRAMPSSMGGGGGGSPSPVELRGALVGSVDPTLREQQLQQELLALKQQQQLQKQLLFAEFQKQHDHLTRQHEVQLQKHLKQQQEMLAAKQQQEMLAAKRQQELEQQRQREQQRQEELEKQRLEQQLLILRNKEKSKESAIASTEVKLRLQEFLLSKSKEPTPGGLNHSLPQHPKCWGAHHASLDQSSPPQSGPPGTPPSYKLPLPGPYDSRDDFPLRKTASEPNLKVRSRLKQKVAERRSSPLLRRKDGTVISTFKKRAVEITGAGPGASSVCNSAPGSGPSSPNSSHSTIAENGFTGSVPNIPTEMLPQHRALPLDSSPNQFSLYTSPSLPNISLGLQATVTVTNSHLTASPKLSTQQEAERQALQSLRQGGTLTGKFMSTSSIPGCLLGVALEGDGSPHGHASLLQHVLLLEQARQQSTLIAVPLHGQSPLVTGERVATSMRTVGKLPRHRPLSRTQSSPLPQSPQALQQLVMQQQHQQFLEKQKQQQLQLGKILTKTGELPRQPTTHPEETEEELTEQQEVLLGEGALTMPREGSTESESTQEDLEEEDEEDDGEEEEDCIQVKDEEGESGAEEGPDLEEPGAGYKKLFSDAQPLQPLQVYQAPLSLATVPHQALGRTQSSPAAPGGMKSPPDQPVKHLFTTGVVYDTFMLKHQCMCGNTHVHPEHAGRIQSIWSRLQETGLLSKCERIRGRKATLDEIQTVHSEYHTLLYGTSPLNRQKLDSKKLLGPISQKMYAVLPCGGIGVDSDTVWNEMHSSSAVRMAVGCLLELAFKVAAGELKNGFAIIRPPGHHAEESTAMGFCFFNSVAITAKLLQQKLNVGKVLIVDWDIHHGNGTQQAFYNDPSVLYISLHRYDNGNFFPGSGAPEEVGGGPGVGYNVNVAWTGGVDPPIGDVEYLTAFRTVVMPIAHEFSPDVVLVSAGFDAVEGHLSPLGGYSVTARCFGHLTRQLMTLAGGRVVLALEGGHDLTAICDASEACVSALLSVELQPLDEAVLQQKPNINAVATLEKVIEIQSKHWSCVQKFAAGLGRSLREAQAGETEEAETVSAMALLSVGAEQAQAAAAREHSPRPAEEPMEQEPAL
Chain of Histone deacetylase 4 (P56524 whole entry): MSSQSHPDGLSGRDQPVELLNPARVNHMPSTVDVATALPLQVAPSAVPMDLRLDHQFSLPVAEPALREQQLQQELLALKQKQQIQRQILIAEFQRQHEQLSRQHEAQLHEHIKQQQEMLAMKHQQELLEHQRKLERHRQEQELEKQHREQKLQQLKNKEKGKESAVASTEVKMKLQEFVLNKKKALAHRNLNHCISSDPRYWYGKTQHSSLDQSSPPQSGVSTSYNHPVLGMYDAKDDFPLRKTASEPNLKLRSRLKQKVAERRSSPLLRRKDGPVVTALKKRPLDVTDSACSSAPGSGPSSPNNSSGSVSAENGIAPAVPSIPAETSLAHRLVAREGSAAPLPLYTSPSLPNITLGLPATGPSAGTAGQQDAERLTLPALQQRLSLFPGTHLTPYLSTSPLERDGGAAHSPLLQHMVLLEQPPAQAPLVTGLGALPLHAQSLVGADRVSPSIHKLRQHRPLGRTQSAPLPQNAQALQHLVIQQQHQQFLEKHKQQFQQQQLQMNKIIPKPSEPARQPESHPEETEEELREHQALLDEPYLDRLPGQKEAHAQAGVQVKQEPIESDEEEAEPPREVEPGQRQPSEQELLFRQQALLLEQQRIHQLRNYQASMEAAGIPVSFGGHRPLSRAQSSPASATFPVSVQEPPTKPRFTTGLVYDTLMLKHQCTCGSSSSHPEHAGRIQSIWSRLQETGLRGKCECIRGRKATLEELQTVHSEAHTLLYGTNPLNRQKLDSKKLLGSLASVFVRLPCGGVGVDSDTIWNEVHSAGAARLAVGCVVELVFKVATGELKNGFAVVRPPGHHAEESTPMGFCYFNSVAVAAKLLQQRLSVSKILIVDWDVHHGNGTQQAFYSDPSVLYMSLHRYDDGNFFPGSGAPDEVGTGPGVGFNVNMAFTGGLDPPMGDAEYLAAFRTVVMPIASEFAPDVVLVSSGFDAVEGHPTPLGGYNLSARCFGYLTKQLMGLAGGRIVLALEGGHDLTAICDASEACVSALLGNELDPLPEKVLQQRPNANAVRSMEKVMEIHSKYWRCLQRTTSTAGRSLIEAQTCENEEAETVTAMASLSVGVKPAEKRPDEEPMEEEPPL
Chain of Histone deacetylase 2 (Q92769 whole entry): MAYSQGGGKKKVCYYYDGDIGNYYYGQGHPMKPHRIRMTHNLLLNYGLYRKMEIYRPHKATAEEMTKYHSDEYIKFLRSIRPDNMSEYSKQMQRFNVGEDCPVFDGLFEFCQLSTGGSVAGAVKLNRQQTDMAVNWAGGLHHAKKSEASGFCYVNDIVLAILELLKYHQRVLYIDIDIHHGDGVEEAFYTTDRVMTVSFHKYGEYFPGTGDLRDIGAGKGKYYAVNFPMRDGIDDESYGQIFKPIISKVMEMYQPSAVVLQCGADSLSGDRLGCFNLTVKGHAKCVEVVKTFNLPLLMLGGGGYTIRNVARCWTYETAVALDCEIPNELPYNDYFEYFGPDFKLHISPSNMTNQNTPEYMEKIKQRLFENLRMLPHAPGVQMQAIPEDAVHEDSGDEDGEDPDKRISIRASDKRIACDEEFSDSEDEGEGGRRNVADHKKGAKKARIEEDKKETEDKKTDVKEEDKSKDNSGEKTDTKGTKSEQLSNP
Chain of Histone deacetylase 1 (Q13547 whole entry): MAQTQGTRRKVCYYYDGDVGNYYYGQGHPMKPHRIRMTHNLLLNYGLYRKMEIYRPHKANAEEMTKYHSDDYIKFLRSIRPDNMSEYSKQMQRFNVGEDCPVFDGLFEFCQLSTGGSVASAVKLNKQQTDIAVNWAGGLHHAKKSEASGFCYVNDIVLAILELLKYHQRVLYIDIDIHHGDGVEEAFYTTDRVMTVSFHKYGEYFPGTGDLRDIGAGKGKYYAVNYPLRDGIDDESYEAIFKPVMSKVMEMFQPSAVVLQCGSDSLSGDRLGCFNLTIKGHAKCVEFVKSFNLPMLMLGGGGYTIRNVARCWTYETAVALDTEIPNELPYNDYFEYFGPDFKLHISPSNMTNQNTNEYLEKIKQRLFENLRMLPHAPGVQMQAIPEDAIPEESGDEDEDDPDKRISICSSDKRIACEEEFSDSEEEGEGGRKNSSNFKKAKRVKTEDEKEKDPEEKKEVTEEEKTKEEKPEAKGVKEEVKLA
Chain of Histone deacetylase 9 (Q9UKV0 whole entry): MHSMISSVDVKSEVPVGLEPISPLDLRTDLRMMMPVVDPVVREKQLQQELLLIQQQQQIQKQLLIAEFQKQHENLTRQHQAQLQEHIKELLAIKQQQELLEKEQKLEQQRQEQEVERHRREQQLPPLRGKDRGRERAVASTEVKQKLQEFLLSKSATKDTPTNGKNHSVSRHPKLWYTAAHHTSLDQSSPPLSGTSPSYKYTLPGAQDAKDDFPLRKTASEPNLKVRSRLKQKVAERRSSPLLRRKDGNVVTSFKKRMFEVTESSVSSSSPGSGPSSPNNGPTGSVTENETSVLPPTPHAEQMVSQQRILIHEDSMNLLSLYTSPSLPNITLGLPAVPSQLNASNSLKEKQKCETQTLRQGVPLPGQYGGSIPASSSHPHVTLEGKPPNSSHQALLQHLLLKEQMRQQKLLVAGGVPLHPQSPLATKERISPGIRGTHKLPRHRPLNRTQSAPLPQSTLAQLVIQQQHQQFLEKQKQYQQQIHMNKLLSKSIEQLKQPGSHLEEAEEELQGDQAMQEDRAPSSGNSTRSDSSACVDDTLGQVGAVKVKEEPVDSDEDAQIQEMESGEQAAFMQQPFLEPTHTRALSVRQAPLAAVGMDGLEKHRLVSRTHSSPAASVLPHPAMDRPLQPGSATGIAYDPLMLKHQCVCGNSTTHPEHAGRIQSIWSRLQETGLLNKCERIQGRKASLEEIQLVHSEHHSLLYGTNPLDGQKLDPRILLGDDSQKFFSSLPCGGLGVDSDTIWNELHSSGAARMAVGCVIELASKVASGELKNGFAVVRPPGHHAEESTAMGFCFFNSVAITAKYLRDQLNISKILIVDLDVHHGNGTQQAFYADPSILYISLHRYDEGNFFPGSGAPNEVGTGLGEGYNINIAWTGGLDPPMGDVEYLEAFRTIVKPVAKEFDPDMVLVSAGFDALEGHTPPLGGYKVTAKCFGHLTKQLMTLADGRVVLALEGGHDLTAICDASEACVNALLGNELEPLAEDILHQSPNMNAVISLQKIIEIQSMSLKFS

## O=C(CCCCCCc1nc2ccc(-c3cccc(F)c3)cc2[nH]1)NO
SK-OV-3
  IC50: 1500 nM

## O=C(CCCCCCc1nc2ccccc2n1C1CC1)NO
SK-OV-3
  IC50: 9500 nM

## O=C(CCCCCCc1nc2ccc(-c3cncnc3)cc2[nH]1)NO
SK-OV-3
  IC50: 2600 nM

## O=C(CCCCCCc1nc2ccccc2n1-c1ccccc1)NO
SK-OV-3
  IC50: > 20000 nM

## O=C(CCCCCCc1nc2ccc(Cl)cc2[nH]1)NO
SK-OV-3
  IC50: 320 nM

## Cn1c(CCCCCCC(=O)NO)nc2ccccc21
SK-OV-3
  IC50: 3000 nM

## Nc1ccn([C@@H]2O[C@H](CO)[C@@H](O)C2(F)F)c(=O)n1
MIA PaCa-2 [1]
  TGI: Active

## O=C(CCCCCCC(=O)Nc1ccccc1)NO [VORINOSTAT]
[2]
  IC50: 2300 nM
SK-OV-3
  IC50: 2300 nM

## O=C(CCCCCCc1nc2ccc(-c3ccccc3)cc2[nH]1)NO
SK-OV-3
  IC50: 100 nM

## O=C(CCCCCCc1nc2ccc(-c3ccccc3F)cc2[nH]1)NO
SK-OV-3
  IC50: 7400 nM

## O=C(CCCCCCc1nc2ccccc2[nH]1)NO
SK-OV-3
  IC50: 2700 nM

## CN(C)c1ccc2nc(CCCCCCC(=O)NO)[nH]c2c1
SK-OV-3
  IC50: 1200 nM

## O=C(CCCCCCc1nc2ccncc2[nH]1)NO
SK-OV-3
  IC50: > 20000 nM

## O=C(CCCCCCc1nc2ccc(F)cc2[nH]1)NO
SK-OV-3
  IC50: 1900 nM

## CN(C)c1ccc(-c2ccc3nc(CCCCCCC(=O)NO)[nH]c3c2)cc1
SK-OV-3
  IC50: 6600 nM

## O=C(CCCCCCc1nc2ccc(Br)cc2[nH]1)NO
MDA-MB-231
  IC50: 820 nM
[3]
  IC50: 560 nM
[4]
  IC50: 980 nM
Mus musculus
  Activity: Non-toxic
MIA PaCa-2 [5]
  inhibition in vivo at 100 mg/kg: 74%
[6]
  IC50: 610 nM
[7]
  IC50: 230 nM
NCI-H69 [8]
  IC50: 150 nM
NCI-H69 [9]
  IC50: 170 nM
[10]
  IC50: 2200 nM
NCI-H295R
  IC50: 180 nM
[11]
  IC50: 2400 nM
[12]
  IC50: 2000 nM
[2]
  IC50: 89 nM
A2780
  IC50: 1900 nM
Histone deacetylase 11
  IC50: 33.4 nM
[13]
  IC50: 3 nM
Histone deacetylase 8
  IC50: 282 nM
Histone deacetylase 9
  IC50: 1.1 nM
Histone deacetylase 5
  IC50: 2.5 nM
[14]
  IC50: 1.9 nM
Histone deacetylase 4
  IC50: 279 nM
SK-OV-3
  IC50: 260 nM
Histone deacetylase 2
  IC50: 34.1 nM
Histone deacetylase 1
  IC50: 20.2 nM
Histone deacetylase 3
  IC50: 6.4 nM

## COc1ccc2nc(CCCCCCC(=O)NO)[nH]c2c1
SK-OV-3
  IC50: 11000 nM

## O=C(CCCCCCc1nc2ccc(-c3ccc(F)cc3)cc2[nH]1)NO
SK-OV-3
  IC50: 1200 nM

## O=C(CCCCCCc1nc2ccccc2n1C1CCCC1)NO
SK-OV-3
  IC50: 4800 nM

## COc1ccc(-c2ccc3nc(CCCCCCC(=O)NO)[nH]c3c2)cc1
SK-OV-3
  IC50: 3100 nM

## O=C(CCCCCc1nc2ccccc2[nH]1)NO
SK-OV-3
  IC50: 11000 nM

## O=C(CCCCCCc1nc2cccc(Cl)c2[nH]1)NO
SK-OV-3
  IC50: 10000 nM
